{"source": "patent EP4711367A1", "about": "“PYRAZOLOPYRAZINE COMPOUND AND METHOD FOR PREPARING CRYSTAL FORM THEREOF” (CMS Research & Development Pte. Ltd., priority 2023, dated 2024)", "key": {"TYK2(h)": {"biological_target": "T1, TYK2(h) (Homo sapiens, UniProt P29597)", "T1 construct": "purchased Eurofins (UK)", "T1 sequence (P29597 whole entry)": "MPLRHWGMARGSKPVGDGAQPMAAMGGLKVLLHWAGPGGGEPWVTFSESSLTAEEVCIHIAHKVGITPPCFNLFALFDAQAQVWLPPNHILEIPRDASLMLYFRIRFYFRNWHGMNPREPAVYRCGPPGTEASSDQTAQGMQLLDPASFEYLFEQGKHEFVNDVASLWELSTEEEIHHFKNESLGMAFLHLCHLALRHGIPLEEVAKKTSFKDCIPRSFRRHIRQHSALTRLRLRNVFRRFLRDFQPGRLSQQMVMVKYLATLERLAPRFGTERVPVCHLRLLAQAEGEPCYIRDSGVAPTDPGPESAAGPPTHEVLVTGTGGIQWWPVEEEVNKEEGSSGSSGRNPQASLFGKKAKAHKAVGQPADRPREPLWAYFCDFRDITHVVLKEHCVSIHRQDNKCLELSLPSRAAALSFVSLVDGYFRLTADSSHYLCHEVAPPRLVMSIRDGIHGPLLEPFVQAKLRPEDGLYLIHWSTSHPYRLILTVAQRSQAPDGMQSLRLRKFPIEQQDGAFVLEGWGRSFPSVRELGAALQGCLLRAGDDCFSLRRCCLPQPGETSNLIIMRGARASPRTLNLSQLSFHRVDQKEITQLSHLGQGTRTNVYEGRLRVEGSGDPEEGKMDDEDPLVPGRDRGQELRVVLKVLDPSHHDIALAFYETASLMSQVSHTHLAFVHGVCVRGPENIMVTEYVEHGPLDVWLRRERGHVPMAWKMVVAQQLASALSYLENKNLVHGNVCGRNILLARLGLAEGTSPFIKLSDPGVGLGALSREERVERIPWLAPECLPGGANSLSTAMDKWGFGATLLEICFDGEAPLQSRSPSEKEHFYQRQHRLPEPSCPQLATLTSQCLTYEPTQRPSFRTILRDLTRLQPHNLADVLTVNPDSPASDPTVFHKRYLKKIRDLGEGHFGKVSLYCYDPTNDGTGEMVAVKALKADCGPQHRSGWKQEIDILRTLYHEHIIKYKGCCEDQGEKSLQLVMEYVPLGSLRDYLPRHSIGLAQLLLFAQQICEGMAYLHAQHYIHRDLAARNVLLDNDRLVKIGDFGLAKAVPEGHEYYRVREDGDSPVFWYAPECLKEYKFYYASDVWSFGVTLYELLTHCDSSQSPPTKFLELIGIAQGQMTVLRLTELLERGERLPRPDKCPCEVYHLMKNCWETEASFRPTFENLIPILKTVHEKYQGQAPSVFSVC", "experiment": "In vitro activity test of TYK2 kinase ([γ-33P]-ATP filter assay, Eurofins)", "type": "biochemical", "protocol": "Recombinant human JAK1, JAK2, JAK3, and Tyk2 proteases, along with major instruments and reagents, were provided by Eurofins in the UK. JAK2, JAK3, and TYK2 were diluted with: 20 mM 3-(N-morpholino)propanesulfonic acid (MOPS), 1 mM EDTA, 0.01% Brij-35.5% glycerol, 0.1% β-mercaptoethanol, 1 mg/mL BSA; JAK1 was diluted with: 20 mM TRIS, 0.2 mM EDTA, 0.1% β-mercaptoethanol, 0.01% Brij-35.5% glycerol. The compound of formula (I) was prepared as a 100% DMSO solution and diluted to 50 times the final assay concentration. The test compound was subjected to a 3-fold serial dilution, with final concentrations ranging from 10 µM to 0.001 µM across 9 concentrations, and the DMSO content in the detection reaction was 2%. The working stock solution of this compound was added as the first component of the reaction to the assay wells, followed by the addition of the remaining components according to the protocol detailed below. TYK2(h) was incubated with 8 mM MOPS pH 7.0, 0.2 mM EDTA, 250 µM GGMEDIYFEFMGGKKK, 10 mM magnesium acetate, and [γ-^33P]-ATP (activity and concentration adjusted as needed). The reaction was initiated by adding the Mg/ATP mixture and incubated at room temperature for 40 minutes, then terminated by adding 0.5% phosphoric acid. […] The IC50 results were analyzed using XLFIT5 (205 formula) from IDBS, as detailed in Table 12. […]"}, "[1]": {"experiment": "Pharmacokinetic (PK) test in mice", "type": "in vivo, male mice (balb/c)", "protocol": "The clarified solutions obtained by dissolving the test compound were administered to male mice (balb/c) via tail vein injection and oral gavage, respectively. After administration of the test compound, blood was collected from the mandibular vein at 0.083, 0.25, 0.5, 1, 2, 4, 8, and 24 hours for the intravenous injection group (1 mg/kg) and at 0.25, 0.5, 1, 2, 4, 6, 8, and 24 hours for the oral gavage group (3 mg/kg), followed by centrifugation to obtain plasma. Plasma concentrations were determined by the LC-MS/MS method, and relevant pharmacokinetic parameters were calculated using WinNonlin™ Version 6.3 pharmacokinetic software with non-compartmental model linear-log trapezoidal method. PK test results of the compound of formula (I) in mice"}, "[2]": {"test_system": "IL-23-induced epidermal hyperplasia model of the mouse ear pinna", "experiment": "Pharmacodynamic test of psoriasis model in mice (IL-23 injected into the ear pinna)", "type": "in vivo, C57BL/6 mouse", "details": "for Ear thickness (mm)/day: right ear", "protocol": "Objective: The purpose of this experiment is to evaluate the preventive and therapeutic effects of the test substance on IL-23-induced psoriasis-like skin lesions in mice, which were established by intradermal injection of IL-23 into the mouse ear pinna.\nMethods: After the acclimation period, 50 mice were divided into 5 groups of 10 each by Excel complete randomization, namely: vehicle (0.5% MC & 0.5% Tween 80) control group, model group, and compound of formula (I) (10, 20, 50 mg/kg) groups. Except for the vehicle control group, the remaining groups were intradermally injected with IL-23 (3 µg/10 µL/mouse/day, QD) in the right ear for 8 consecutive days (D1 to D8), while the control group animals were intradermally injected with an equal volume of normal saline solution (10 µL/mouse/day, QD) in the right ear for 8 consecutive days (D1 to D8). During the modeling period, the vehicle or test drug was orally administered twice daily (Bid) at 6-hour intervals for 8 consecutive days (D1 to D8). During the administration period, the body weight of the animals was monitored every two days. On D1, D3, D5, D7 (all before IL-23 injection), and D9, the thickness of the right ear of the mice was measured, and the appearance of the ear pinna was scored. At the end of the experiment (Day 10), the modeled ear was excised, and an ear piece was punched along the ear pinna edge using an 8 mm punch and weighed. The punched right ear piece was fixed with formalin and subjected to histopathological examination (H&E) staining."}, "[3]": {"details": "10 mg/kg oral gavage twice daily for 8 days, day 1"}, "[4]": {"details": "10 mg/kg oral gavage twice daily for 8 days, day 3"}, "[5]": {"details": "10 mg/kg oral gavage twice daily for 8 days, day 5"}, "[6]": {"details": "10 mg/kg oral gavage twice daily for 8 days, day 7"}, "[7]": {"details": "10 mg/kg oral gavage twice daily for 8 days, day 9"}, "[8]": {"details": "20 mg/kg oral gavage twice daily for 8 days, day 1"}, "[9]": {"details": "20 mg/kg oral gavage twice daily for 8 days, day 3"}, "[10]": {"details": "20 mg/kg oral gavage twice daily for 8 days, day 5"}, "[11]": {"details": "20 mg/kg oral gavage twice daily for 8 days, day 7"}, "[12]": {"details": "20 mg/kg oral gavage twice daily for 8 days, day 9"}, "[13]": {"details": "50 mg/kg oral gavage twice daily for 8 days, day 1"}, "[14]": {"details": "50 mg/kg oral gavage twice daily for 8 days, day 3"}, "[15]": {"details": "50 mg/kg oral gavage twice daily for 8 days, day 5"}, "[16]": {"details": "50 mg/kg oral gavage twice daily for 8 days, day 7"}, "[17]": {"details": "50 mg/kg oral gavage twice daily for 8 days, day 9"}, "[18]": {"details": "10, 20, 50 mg/kg oral gavage twice daily for 8 consecutive days"}}, "data": [{"compound": "Cn1cc(-c2cn3nccc3c(-c3cnn([C@]4(CC#N)CC5(C[C@H](C#N)C5)C4)c3)n2)cn1", "note": "(stereo partly drawn) [Compound of formula (I)]", "values": [{"measurement": "IC50", "setting": "TYK2(h)", "value": 0.9, "unit": "nM"}, {"measurement": "selective inhibition against TYK2 and/or JAK1 and/or JAK2", "setting": "TYK2(h); in vitro activity tests for the four kinase subtypes JAK1, JAK2, JAK3, and TYK2", "value": "good selective inhibition"}, {"measurement": "exposure (in words)", "setting": "[1]", "value": "high exposure"}, {"measurement": "oral bioavailability (in words)", "setting": "[1]", "value": "good oral bioavailability"}, {"measurement": "Body weight (g)/day", "setting": "[2]; [3]", "value": "19.77 ± 0.59", "unit": "g"}, {"measurement": "Ear comprehensive score/day", "setting": "[2]; [3]", "value": "0.00 ± 0.00"}, {"measurement": "Body weight (g)/day", "setting": "[2]; [4]", "value": "19.69 ± 0.57", "unit": "g"}, {"measurement": "Ear comprehensive score/day", "setting": "[2]; [4]", "value": "0.00 ± 0.00"}, {"measurement": "Body weight (g)/day", "setting": "[2]; [5]", "value": "20.02 ± 0.77", "unit": "g"}, {"measurement": "Ear comprehensive score/day", "setting": "[2]; [5]", "value": "0.60 ± 0.52"}, {"measurement": "Body weight (g)/day", "setting": "[2]; [6]", "value": "19.69 ± 0.63", "unit": "g"}, {"measurement": "Ear comprehensive score/day", "setting": "[2]; [6]", "value": "1.70 ± 1.06"}, {"measurement": "Body weight (g)/day", "setting": "[2]; [7]", "value": "20.04 ± 0.72", "unit": "g"}, {"measurement": "Ear comprehensive score/day", "setting": "[2]; [7]", "value": "2.60 ± 1.43"}, {"measurement": "Ear thickness (mm)/day", "setting": "[2]; [7]", "value": "0.430 ± 0.048", "unit": "mm"}, {"measurement": "Body weight (g)/day", "setting": "[2]; [8]", "value": "19.77 ± 0.54", "unit": "g"}, {"measurement": "Ear comprehensive score/day", "setting": "[2]; [8]", "value": "0.00 ± 0.00"}, {"measurement": "Body weight (g)/day", "setting": "[2]; [9]", "value": "19.85 ± 0.78", "unit": "g"}, {"measurement": "Ear comprehensive score/day", "setting": "[2]; [9]", "value": "0.00 ± 0.00"}, {"measurement": "Body weight (g)/day", "setting": "[2]; [10]", "value": "20.13 ± 0.78", "unit": "g"}, {"measurement": "Ear comprehensive score/day", "setting": "[2]; [10]", "value": "0.60 ± 0.70"}, {"measurement": "Body weight (g)/day", "setting": "[2]; [11]", "value": "19.80 ± 0.92", "unit": "g"}, {"measurement": "Ear comprehensive score/day", "setting": "[2]; [11]", "value": "1.40 ± 0.52"}, {"measurement": "Body weight (g)/day", "setting": "[2]; [12]", "value": "20.27 ± 0.90", "unit": "g"}, {"measurement": "Ear comprehensive score/day", "setting": "[2]; [12]", "value": "1.50 ± 0.71"}, {"measurement": "Ear thickness (mm)/day", "setting": "[2]; [8]", "value": "0.190 ± 0.009", "unit": "mm"}, {"measurement": "Ear thickness (mm)/day", "setting": "[2]; [11]", "value": "0.350 ± 0.025", "unit": "mm"}, {"measurement": "Body weight (g)/day", "setting": "[2]; [13]", "value": "19.78 ± 0.53", "unit": "g"}, {"measurement": "Ear comprehensive score/day", "setting": "[2]; [13]", "value": "0.00 ± 0.00"}, {"measurement": "Body weight (g)/day", "setting": "[2]; [14]", "value": "19.85 ± 0.68", "unit": "g"}, {"measurement": "Ear comprehensive score/day", "setting": "[2]; [14]", "value": "0.00 ± 0.00"}, {"measurement": "Body weight (g)/day", "setting": "[2]; [15]", "value": "20.41 ± 0.70", "unit": "g"}, {"measurement": "Ear comprehensive score/day", "setting": "[2]; [15]", "value": "0.10 ± 0.32"}, {"measurement": "Body weight (g)/day", "setting": "[2]; [16]", "value": "20.15 ± 0.56", "unit": "g"}, {"measurement": "Ear comprehensive score/day", "setting": "[2]; [16]", "value": "1.40 ± 0.70"}, {"measurement": "Body weight (g)/day", "setting": "[2]; [17]", "value": "20.28 ± 0.76", "unit": "g"}, {"measurement": "Ear comprehensive score/day", "setting": "[2]; [17]", "value": "1.00 ± 0.47"}, {"measurement": "effect on the body weight of the animals (in words)", "setting": "[2]; [18]", "value": "no significant effect"}, {"measurement": "effect on the weight of the modeled ear (in words)", "setting": "[2]; [18]", "value": "significantly reduce"}, {"measurement": "effect on the total score of the modeled ear (in words)", "setting": "[2]; 10, 20, 50 mg/kg oral gavage twice daily for 8 consecutive days, from D5 to D9", "value": "significantly reduce"}, {"measurement": "effect on the thickness of the modeled ear (in words)", "setting": "[2]; dose of 50 mg/kg, as early as D3", "value": "significantly reduces"}, {"measurement": "effect on the thickness of the modeled ear (in words)", "setting": "[2]; doses of 10 and 20 mg/kg, starting from day 5", "value": "significantly reduces"}]}]}
